Laboratory results: PMC8544881 (mSphere, 2021)

Target: T1, ZBTB25 (Homo sapiens, UniProt P24278)
T1 construct: recombinant ZBTB25 protein
T1 sequence (P24278 1-435): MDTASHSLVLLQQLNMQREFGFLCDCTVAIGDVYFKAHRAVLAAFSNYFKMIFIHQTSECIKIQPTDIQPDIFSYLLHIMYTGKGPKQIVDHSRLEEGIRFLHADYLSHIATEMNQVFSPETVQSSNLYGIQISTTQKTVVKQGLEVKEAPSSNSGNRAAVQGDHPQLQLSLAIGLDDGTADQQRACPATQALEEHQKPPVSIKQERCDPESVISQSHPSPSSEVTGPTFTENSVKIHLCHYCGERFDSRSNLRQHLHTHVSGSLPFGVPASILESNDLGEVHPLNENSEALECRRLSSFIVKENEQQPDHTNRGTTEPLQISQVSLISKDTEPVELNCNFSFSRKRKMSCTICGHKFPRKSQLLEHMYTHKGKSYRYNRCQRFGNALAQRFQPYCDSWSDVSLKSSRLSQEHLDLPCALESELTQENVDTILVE
Test: zinc ejection assay with FluoZin-3 fluorescence
Format: binding

In the case of `CCN(CC)C(=S)SSC(=S)N(CC)CC` [DS, disulfiram], the IC50 is reported as 10.3 ± 0.3 µM.
dithiopyridine [DP] was tested, and the IC50 was 4.61 ± 0.28 µM.
